Reference: US20190307843A1, “SINGLE DOSE METHODS FOR PREVENTING AND TREATING FUNGAL INFECTIONS” (Cidara Therapeutics, Inc., priority 2016, published 2019)
Starred links: 1 amine or outer side, 2 acyl side, 3 side chain; linkers in the order of their positions; H or OH if unused. Positions of bridges follow the written chain, without caps; N, C: chain ends. Non-standard residues stand in square brackets, D forms with d. Residues, ends and D or L forms follow the SMILES beside them. *: point of attachment. Orn(4R-OH,5R-OCH2CH2NMe3+) = C[N+](C)(C)CCO[C@@H](N[*:3])[C@H](O)C[C@H](N[*:1])C(=O)[*:2]; pTerphenylCO(4''-OnC5H11) = CCCCCOc1ccc(-c2ccc(-c3ccc(C(=O)*)cc3)cc2)cc1; hTyr(3S-OH,4S-OH) = N[C@H](C(=O)O)[C@H](O)[C@@H](O)c1ccc(O)cc1; Pro(3S-OH,4S-Me) = C[C@H]1CN[C@H](C(=O)O)[C@H]1O; Hyp = O=C(O)[C@@H]1C[C@@H](O)CN1

Key:
[1] = test system: C. albicans strain 529L; test: Rat model of vulvovaginal candidiasis, vaginal lavage and tissue burden; assay type: in vivo, Candida albicans
[2] = test system: A. fumigatus strain AF293; test: Murine model of pulmonary aspergillosis (Example 13), survival
[3] = 5 mg/kg SC Dosed Once, lavage Day 5 post infection
[4] = 5 mg/kg SC Dosed Once, lavage Day 7 post infection
[5] = 5 mg/kg SC Dosed Once, lavage Day 9 post infection
[6] = 5 mg/kg SC Dosed Once, terminal vaginal tissue Day +9 post infection
[7] = 5 mg/kg SC Dosed Twice, lavage Day 1 post infection, pre-treatment
[8] = 5 mg/kg SC Dosed Twice, lavage Day 2 post infection
[9] = 5 mg/kg SC Dosed Twice, lavage Day 3 post infection
[10] = 5 mg/kg SC Dosed Twice, lavage Day 5 post infection
[11] = 5 mg/kg SC Dosed Twice, lavage Day 7 post infection
[12] = 5 mg/kg SC Dosed Twice, lavage Day 9 post infection
[13] = 5 mg/kg SC Dosed Twice, terminal vaginal tissue Day +9 post infection
[14] = 10 mg/kg SC Dosed Once, lavage Day 1 post infection, pre-treatment
[15] = 10 mg/kg SC Dosed Once, lavage Day 2 post infection
[16] = 10 mg/kg SC Dosed Once, lavage Day 3 post infection
[17] = 10 mg/kg SC Dosed Once, lavage Day 5 post infection
[18] = 10 mg/kg SC Dosed Once, lavage Day 7 post infection
[19] = 10 mg/kg SC Dosed Once, lavage Day 9 post infection
[20] = 10 mg/kg SC Dosed Once, terminal vaginal tissue Day +9 post infection
[21] = CD101 5mpk Day −3 vs. CD101 5mpk Day −5
[22] = CD101 5mpk Day −5 vs. CD101 10mpk Day −5
[23] = CD101 5mpk Day −5 vs. CD101 20mpk Day −5
[24] = CD101 20mpk Day −1 vs. CD101 20mpk Day −3
[25] = Micafungin 2mpk Day −1 vs. CD101 10mpk Day −1
[26] = Micafungin 2mpk Day −1 vs. CD101 20mpk Day −1

SMILES: CCCCCOc1ccc(-c2ccc(-c3ccc(C(=O)N[C@H]4C[C@@H](O)[C@@H](OCC[N+](C)(C)C)NC(=O)[C@@H]5[C@@H](O)[C@@H](C)CN5C(=O)[C@H]([C@@H](C)O)NC(=O)[C@H]([C@H](O)[C@@H](O)c5ccc(O)cc5)NC(=O)[C@@H]5C[C@@H](O)CN5C(=O)[C@H]([C@@H](C)O)NC4=O)cc3)cc2)cc1 [CD101] ({pTerphenylCO(4''-OnC5H11)}-[Orn(4R-OH,5R-OCH2CH2NMe3+)]T[Hyp][hTyr(3S-OH,4S-OH)]T[Pro(3S-OH,4S-Me)]; lactam 1-C)
- Log reduction from vehicle control ([1]; 5 mg/kg SC Dosed Once, lavage Day 3 post infection): 1.49 CFU/mL
- Group Geometric mean [1, 3]: 1.70 × 10^3 CFU/mL
- Log Group Geometric mean [1, 3]: 3.23 CFU/mL
- Log reduction from vehicle control [1, 3]: 0.99 CFU/mL
- Group Geometric mean [1, 4]: 4.56 × 10^3 CFU/mL
- Log Group Geometric mean [1, 4]: 3.66 CFU/mL
- Log reduction from vehicle control [1, 4]: 0.52 CFU/mL
- Group Geometric mean [1, 5]: 4.58 × 10^3 CFU/mL
- Log Group Geometric mean [1, 5]: 3.66 CFU/mL
- Log reduction from vehicle control [1, 5]: 0.64 CFU/mL
- Group Geometric mean [1, 6]: 1.37 × 10^5 CFU/g
- Log Group Geometric mean [1, 6]: 5.14 CFU/g
- Group Geometric mean [1, 7]: 1.83 × 10^3 CFU/mL
- Log Group Geometric mean [1, 7]: 3.26 CFU/mL
- Log reduction from vehicle control [1, 7]: −0.83 CFU/mL
- Group Geometric mean [1, 8]: 2.56 × 10^2 CFU/mL
- Log Group Geometric mean [1, 8]: 2.41 CFU/mL
- Log reduction from vehicle control [1, 8]: 1.29 CFU/mL
- Group Geometric mean [1, 9]: 1.95 × 10^2 CFU/mL
- Log Group Geometric mean [1, 9]: 2.29 CFU/mL
- Log reduction from vehicle control [1, 9]: 1.28 CFU/mL
- Group Geometric mean [1, 10]: 1.73 × 10^3 CFU/mL
- Log Group Geometric mean [1, 10]: 3.24 CFU/mL
- Log reduction from vehicle control [1, 10]: 0.98 CFU/mL
- Group Geometric mean [1, 11]: 6.47 × 10^2 CFU/mL
- Log Group Geometric mean [1, 11]: 2.81 CFU/mL
- Log reduction from vehicle control [1, 11]: 1.37 CFU/mL
- Group Geometric mean [1, 12]: 1.28 × 10^3 CFU/mL
- Log Group Geometric mean [1, 12]: 3.11 CFU/mL
- Log reduction from vehicle control [1, 12]: 1.19 CFU/mL
- Group Geometric mean [1, 13]: 4.00 × 10^4 CFU/g
- Log Group Geometric mean [1, 13]: 4.60 CFU/g
- Group Geometric mean [1, 14]: 3.68 × 10^2 CFU/mL
- Log Group Geometric mean [1, 14]: 2.57 CFU/mL
- Log reduction from vehicle control [1, 14]: −0.13 CFU/mL
- Group Geometric mean [1, 15]: 2.48 × 10^2 CFU/mL
- Log Group Geometric mean [1, 15]: 2.39 CFU/mL
- Log reduction from vehicle control [1, 15]: 1.30 CFU/mL
- Group Geometric mean [1, 16]: 23.2 CFU/mL
- Log Group Geometric mean [1, 16]: 1.37 CFU/mL
- Log reduction from vehicle control [1, 16]: 2.21 CFU/mL
- Group Geometric mean [1, 17]: 1.73 CFU/mL
- Log Group Geometric mean [1, 17]: 0.24 CFU/mL
- Group Geometric mean [1, 18]: 2.59 CFU/mL
- Log Group Geometric mean [1, 18]: 0.41 CFU/mL
- Log reduction from vehicle control [1, 18]: 3.77 CFU/mL
- Group Geometric mean [1, 19]: 2.75 CFU/mL
- Log Group Geometric mean [1, 19]: 0.44 CFU/mL
- Log reduction from vehicle control [1, 19]: 3.86 CFU/mL
- Group Geometric mean [1, 20]: 5.52 CFU/g
- Log Group Geometric mean [1, 20]: 0.74 CFU/g
- Log reduction from vehicle control [1, 20]: 4.75 CFU/g
- burden reduction ([1]; CD101 5 mg/kg once or twice, lavage Day 5 post infection): about 1 Log10 CFU/m
- rats having burden below the limit of detection ([1]; CD101 10 mg/kg dosed once, lavage Day 5 post infection): 5/6
- rats with burdens below the levels of detection ([1]; CD101 10 mg/kg dosed once, terminal vaginal tissue Day 9): 5/6
- reduction in burden ([1]; all doses of CD101, lavage Day 2 post infection): about 1.3 Log10 CFU/mL
- Mean Survival ([2]; CD101 5 mg/kg IP Day 0): 67.8 h
- Median Survival ([2]; CD101 5 mg/kg IP Day 0): 64.6 h
- Mean Survival ([2]; CD101 5 mg/kg IP Day −1): 72.1 h
- Median Survival ([2]; CD101 5 mg/kg IP Day −1): 67.6 h
- Mean Survival ([2]; CD101 5 mg/kg IP Day −3): 70.0 h
- Median Survival ([2]; CD101 5 mg/kg IP Day −3): 67.7 h
- Mean Survival ([2]; CD101 5 mg/kg IP Day −5): 65.3 h
- Median Survival ([2]; CD101 5 mg/kg IP Day −5): 65.3 h
- Mean Survival ([2]; CD101 10 mg/kg IP Day −1): 121.8 h
- Median Survival ([2]; CD101 10 mg/kg IP Day −1): 81.0 h
- Mean Survival ([2]; CD101 10 mg/kg IP Day −3): 76.9 h
- Median Survival ([2]; CD101 10 mg/kg IP Day −3): 73.4 h
- Mean Survival ([2]; CD101 10 mg/kg IP Day −5): 67.2 h
- Median Survival ([2]; CD101 10 mg/kg IP Day −5): 65.7 h
- Mean Survival ([2]; CD101 20 mg/kg IP Day −1): 155.6 h
- Median Survival ([2]; CD101 20 mg/kg IP Day −1): 72.3 h
- Mean Survival ([2]; CD101 20 mg/kg IP Day −3): 91.9 h
- Median Survival ([2]; CD101 20 mg/kg IP Day −3): 69.8 h
- Mean Survival ([2]; CD101 20 mg/kg IP Day −5): 75.5 h
- Median Survival ([2]; CD101 20 mg/kg IP Day −5): 69.8 h
- Log-Rank test, survival [2, 21]: 0.0183
- Peto-Prentice (Wilcoxon) test, survival [2, 21]: 0.0426
- Log-Rank test, survival [2, 22]: 0.0009
- Peto-Prentice (Wilcoxon) test, survival [2, 22]: 0.0015
- Log-Rank test, survival [2, 23]: 0.0009
- Peto-Prentice (Wilcoxon) test, survival [2, 23]: 0.0015
- Log-Rank test, survival [2, 24]: 0.0387
- Peto-Prentice (Wilcoxon) test, survival [2, 24]: 0.033
- Peto-Prentice (Wilcoxon) test, survival ([2]; Micafungin 2mpk Day −1 vs. CD101 5mpk Day −1): 0.0467
- Log-Rank test, survival [2, 25]: 0.0201
- Peto-Prentice (Wilcoxon) test, survival [2, 25]: 0.0191
- Log-Rank test, survival [2, 26]: 0.0047
- Peto-Prentice (Wilcoxon) test, survival [2, 26]: 0.0067
- Log-Rank test, survival ([2]; Vehicle vs. CD101 20mpk Day −1): NS (0.0533)
- Peto-Prentice (Wilcoxon) test, survival ([2]; Vehicle vs. CD101 20mpk Day −1): 0.0465
